# In US11046731B2, “Zinc-binder based EBNA1-specific compounds” (priority 2018, dated 2021):
# Numbered stars: 1 amine (or outer) side, 2 acyl side, 3 side chain; on linkers, the order of the positions; unused ones are H or OH. Square brackets hold non-standard residues; d marks the D form. Peptide text beside a SMILES is read from it. * marks the point of attachment. X2 = O=C(c1ccc(/C=C/c2ccc(N[*:1])cc2)cc1)[*:2]; X1 = O=C(CN(Cc1ccccn1)Cc1ccccn1)*
# Experiments:
# [1] = test system: BZLF1 (Zta) and BMRF1; test: IHC of EBV lytic proteins in C666-1-derived tumor tissues; format: in vivo, Epstein-Barr virus
# [2] = test system: EBV-positive NPC43, C666-1, Raji cells; conditions: 1-20 μM, 5 days
# [3] = test system: Rta, BMRF1 and gp350/220 in EBV-positive NPC43 cells; test: Western blot of EBV lytic proteins; format: cell-based, Epstein-Barr virus; conditions: 10 μM, 7 days
# [4] = test system: EBV-positive C666-1 xenografts; test: C666-1 nude mice xenograft, intratumoral injection; format: in vivo, BALB/c nude mice; conditions: 18 days
# [5] = test system: EBV-negative HeLa xenografts; conditions: 4 μg/injection every three days, 19 days
smiles,measurement,setting,value
CSCC[C@H](NC(=O)[C@H](Cc1ccccc1)NC(=O)[C@H](Cc1ccc(O)cc1)NC(=O)c1ccc(/C=C/c2ccc(NC(=O)CN(Cc3ccccn3)Cc3ccccn3)cc2)cc1)C(=O)N[C@H](C(=O)N[C@@H](Cc1ccccc1)C(=O)O)C(C)C [ZRL5P2] (X1-[X2]YFMVF-OH),tumor areas positive for BMRF1 (IHC),[1],1.15%
same,cytotoxicity / growth inhibition in EBV-positive cells,[2],least efficient
same,protein levels of Rta and BMRF1,[3],much weaker than that of ZRL5P4
same,effect on tumor growth,[4]; 4 μg/injection intra-tumoral twice weekly,did not significantly affect tumor growth
same,changes in body or organ weights compared to the vehicle control,[4]; 4 μg/injection,did not cause significant changes
same,changes in body weights compared to the control,[5],did not cause any significant changes
